Each compound was assayed on Human Jurkat T-cells (clone N) (assay: Jurkat T-cell activation (anti-TCR, CD69 upregulation)). Conditions: not given.
Format: cell-based
How it was run: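 Readout is CD69 upregulation by flow cytometry (anti-CD69-APC, 20 min at 4 °C) after 20 h anti-TCR (C305, 500 ng/ml) stimulation at 37 °C.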

IC50 | Compound
> 10 µM | O=C(NCCNCc1ccccc1)c1cc2cc(Nc3ncc(F)c(Nc4ccc5oc(C(=O)NCCNCc6ccccc6)cc5c4)n3)ccc2o1 [Compound R950169]
> 10 µM | CCOC(=O)COc1ccc(Nc2nc(Cl)c(Cl)c(Nc3ccc(OCC(=O)OCC)cc3)n2)cc1 [Compound R926569]
2.32 µM | CC(C)Oc1ccc(Nc2nc(Nc3ccc4nn(C)cc4c3)ncc2F)cc1 [Compound R935298]
1.99 µM | CNC(=O)COc1cccc(Nc2ncc(F)c(Nc3cccc(N(C)C)c3)n2)c1 [Compound R950264]
> 10 µM | COC(=O)c1cc(COc2cccc(Nc3ncc(F)c(Nc4ccc5c(c4)OCCO5)n3)c2)co1 [Compound R935207]
3.14 µM | CNC(=O)CCn1ncc2ccc(Nc3ncc(F)c(Nc4ccc(OC(C)C)cc4)n3)cc21 [Compound R935291]
11.2 µM | COC(=O)c1cnc(Nc2ccc(OCC(=O)N3CCCC3)cc2)nc1Nc1ccc(OCC(=O)N2CCCC2)cc1 [Compound R926559]
5.12 µM | O=C1Nc2cc(Nc3nc(Cl)ncc3F)ccc2OC1(F)F [Compound R940342]
> 10 µM | CCOC(=O)COc1cccc(Nc2ncc(F)c(Nc3ccc(O)c(C(=O)O)c3)n2)c1 [Compound R950290]
5.39 µM | Cn1ncc2cc(Nc3ncc(F)c(Nc4ccc5c(cnn5C)c4)n3)ccc21 [Compound R935192]
9.81 µM | O=C(COc1cccc(Nc2ncc(F)c(Nc3ccc4c(c3)OCCO4)n2)c1)N(CCO)CCO [Compound R926781]
7.75 µM | CNC(=O)COc1cccc(Nc2ncc(F)c(Nc3cc(C(=O)OC)cc(C(F)(F)F)c3)n2)c1 [Compound R926862]
> 10 µM | COCc1cc(=O)oc2cc(Nc3ncc(F)c(Nc4ccc5c(COC)cc(=O)oc5c4)n3)ccc12 [Compound R926620]
10.7 µM | COC(=O)Cn1ncc2ccc(Nc3ncc(F)c(Nc4ccc5cnn(CC(=O)OC)c5c4)n3)cc21 [Compound R935205]
2.51 µM | Oc1cccc(Nc2nc(Nc3ccc4[nH]ncc4c3)ncc2F)c1 [Compound R935199]
> 10 µM | CCOC(=O)C(C)(C)c1ccc(Nc2nc(Nc3ccc4c(c3)OCCO4)ncc2F)cc1 [Compound R935148]
4 µM | CNC(=O)COc1cc(O)cc(Nc2ncc(F)c(Nc3cccc(O)c3)n2)c1 [Compound R926929]
> 10 µM | COc1cc(-c2ccccc2)c(C)cc1Nc1ncc(F)c(Nc2cc(C)c(-c3ccccc3)cc2OC)n1 [Compound R926401]
> 10 µM | CC(C)(C)c1cccc(Nc2nc(Nc3cccc(OCC(=O)O)c3)ncc2F)c1 [Compound R940280]
3.75 µM | O=C1COc2cc(Nc3nc(Nc4cccc(O)c4)ncc3F)ccc2N1 [Compound R908698]
> 10 µM | CCOC(=O)c1cnc(Nc2cccc(OCC(=O)NC)c2)nc1Nc1ccc2c(c1)OCCO2 [Compound R926800]
> 10 µM | COC(=O)COc1cccc(Nc2ncc(F)c(Nc3cccc(OCC(=O)OC)c3)n2)c1 [Compound R926255]
2.23 µM | Cn1nnnc1COc1ccc(Nc2ncc(F)c(Nc3ccc(OCc4nnnn4C)cc3)n2)cc1 [Compound R945048]
> 10 µM | CCOC(=O)COc1ccc(Nc2ncc(Br)c(Nc3ccc(OCC(=O)OCC)cc3)n2)cc1 [Compound R925779]

IC50 | Compound
12.9 µM | CN(C)CCCNC(=O)CNc1cccc(Nc2ncc(F)c(Nc3cccc(NCCO)c3)n2)c1 [Compound R950237]
> 10 µM | Cc1nc(COc2cccc(Nc3nc(Nc4ccc(OC(C)C)cc4)ncc3F)c2)no1 [Compound R945138]
9.14 µM | Cc1nc(COc2cccc(Nc3nc(Nc4ccc(OCC(N)=O)cc4)ncc3F)c2)no1 [Compound R945133]
19.2 µM | COC(=O)c1cc2cc(Nc3nc(Nc4cccc(OCc5noc(C)n5)c4)ncc3F)ccc2o1 [Compound R945131]
9.69 µM | O=C(CNc1cccc(Nc2ncc(F)c(Nc3cccc(NCCO)c3)n2)c1)N1CCOCC1 [Compound R950236]
3.28 µM | Cn1nnnc1COc1ccc(Nc2ncc(F)c(Nc3cccc(O)c3)n2)cc1 [Compound R920861]
5.87 µM | CNC(=O)COc1cccc(Nc2ncc(F)c(Nc3cccc(SC(F)(F)F)c3)n2)c1 [Compound R926925]
8.69 µM | O=C(CNc1cccc(Nc2ncc(F)c(Nc3cccc(NCCO)c3)n2)c1)NCCO [Compound R950231]
13.2 µM | CNC(=O)COc1cccc(Nc2ncc(F)c(Nc3cccc(B(O)O)c3)n2)c1 [Compound R926754]
5.7 µM | CNC(=O)CCn1ncc2ccc(Nc3ncc(F)c(Nc4ccc5oc(C(=O)NC)cc5c4)n3)cc21 [Compound R935297]
> 10 µM | CC(C)Oc1ccc(Nc2nc(Nc3ccc(OCc4nc(-c5ccccc5)no4)cc3)ncc2F)cc1 [Compound R935135]
2.43 µM | CC(C)Oc1ccc(Nc2nc(Nc3ccc4[nH]ncc4c3)ncc2F)cc1 [Compound R935197]
> 10 µM | CCOC(=O)COc1cccc(Nc2ncc(F)c(Nc3cccc(C(C)(C)C)c3)n2)c1 [Compound R940270]
19.9 µM | CCOC(=O)C(C)(C)c1ccc(Nc2ncc(F)c(Nc3cccc(O)c3)n2)cc1 [Compound R935152]
> 10 µM | Oc1cccc(Nc2nc(Nc3cc(Br)cc(C(F)(F)F)c3)ncc2F)c1 [Compound R926846]
> 10 µM | CNC(=O)COc1cccc(Nc2ncc(F)c(Nc3ccc4c(c3)CNCC4)n2)c1 [Compound R926914]
4.68 µM | NC(=O)COc1ccc(Nc2ncc(F)c(Nc3cccc(O)c3)n2)cc1 [Compound R945064]
0.982 µM | CNC(=O)COc1cccc(Nc2ncc(F)c(Nc3cccc(NCCO)c3)n2)c1 [Compound R950265]
> 10 µM | COc1cc(C(=O)NS(=O)(=O)c2ccccc2C)ccc1Cn1ncc2ccc(Nc3ncc(F)c(Nc4ccc(OC(C)C)cc4)n3)cc21 [Compound R935322]
> 10 µM | Nc1cccc(Nc2ncc(F)c(Nc3cccc(NCCOCc4ccccc4)c3)n2)c1 [Compound R950175]
6.09 µM | CNC(=O)COc1cccc(Nc2ncc(F)c(Nc3ccc4c(c3)C(=O)CCO4)n2)c1 [Compound R950345]
1.27 µM | OCCCn1ncc2ccc(Nc3ncc(F)c(Nc4ccc5oc(CO)cc5c4)n3)cc21 [Compound R935308]
3.13 µM | N#CCOc1ccc(Nc2nc(Nc3ccc4c(c3)OCCO4)ncc2F)cc1 [Compound R945172]
3.43 µM | CC(C)Oc1ccc(Nc2nc(Nc3ccc4cnn(CCCO)c4c3)ncc2F)cc1 [Compound R935290]

Compound | IC50
O=C(c1cc2cc(Nc3ncc(F)c(Nc4ccc5c(c4)OCCO5)n3)ccc2o1)N1CCNCC1 [Compound R926499] | 0.56 µM

Same assay, conditions: Homo sapiens, Jurkat

IC50 | Compound
19.1 µM | CCOC(=O)CNc1nc(NCC(=O)OCC)c([N+](=O)[O-])c(C(=O)OCC)n1 [Compound R925864]
> 10 µM | Fc1cnc(Nc2ccc(Cl)c(C(F)(F)F)c2)nc1Nc1ccc(Cl)c(C(F)(F)F)c1 [Compound R926039]
> 10 µM | Clc1ccc(-c2cnc(Nc3ccc4c(c3)OCCO4)nc2Nc2ccc3c(c2)OCCO3)cc1 [Compound R925786]
> 10 µM | N#Cc1ccc(Nc2ncc(F)c(Nc3ccc(C#N)cc3)n2)cc1 [Compound R945057]
> 10 µM | Fc1cnc(Nc2cccnc2)nc1Nc1ccc2c(c1)OCCO2 [Compound R920668]
> 10 µM | Cc1ccc(F)c(Nc2ncc(F)c(Nc3ccc4c(c3)OCCO4)n2)c1 [Compound R926897]
5.92 µM | COc1ccc(Nc2nc(Nc3cccc(O)c3)ncc2F)c(OC)n1 [Compound R926887]
5.91 µM | COc1cc(Nc2nc(Nc3cccc(O)c3)ncc2F)cc(OC)c1 [Compound R926802]
15 µM | CCOc1ccc(Nc2ncc(F)c(Nc3ccc4c(c3)OCCO4)n2)cc1 [Compound R926211]
2.47 µM | CC(C)(CO)c1ccc(Nc2nc(Nc3ccc(OCCO)cc3)ncc2F)cc1 [Compound R935158]
> 10 µM | CCNC(=O)Nc1ccc(Nc2ncc(F)c(Nc3ccc(NC(=O)NCC)cc3)n2)cc1 [Compound R945040]
> 10 µM | Clc1cccc(-c2cnc(Nc3ccc4c(c3)OCCO4)nc2Nc2ccc3c(c2)OCCO3)c1 [Compound R925787]
> 10 µM | CCOc1cccc(Nc2ncc(F)c(Nc3cccc(OCC)c3)n2)c1 [Compound R926064]
> 10 µM | CCOC(=O)c1cccc(Nc2ncc(F)c(Nc3cccc(C(=O)OCC)c3)n2)c1 [Compound R926228]
3.04 µM | OCCOc1cccc(Nc2ncc(F)c(Nc3ccc4oc(CO)cc4c3)n2)c1 [Compound R935178]
> 10 µM | Oc1cccc(Nc2ncc(F)c(Nc3cccc(OC(F)(F)F)c3)n2)c1 [Compound R926885]
17 µM | Oc1ccc(CCNc2ccnc(NCCc3ccc(O)cc3)n2)cc1 [Compound R925790]
> 10 µM | COc1ccc(-c2ccccc2)cc1Nc1ncc(C)c(Nc2cc(-c3ccccc3)ccc2OC)n1 [Compound R935000]
4.31 µM | CCOc1ccc(Nc2ccnc(Nc3ccc(OCC)cc3)n2)cc1 [Compound R926069]
3.62 µM | O=S(=O)(c1ccc(Nc2ncc(F)c(Nc3ccc4c(c3)OCCO4)n2)cc1)N1CCCC1 [Compound R926716]
3.46 µM | Fc1cnc(Nc2ccc3c(c2)OCCO3)nc1NCc1csc2ccc(Cl)cc12 [Compound R926721]
5.95 µM | CC(=O)Nc1cccc(Nc2ncc(F)c(Nc3cccc(NC(C)=O)c3)n2)c1 [Compound R926682]
3.28 µM | Oc1cccc(Nc2nc(Nc3cccc(-c4cc[nH]n4)c3)ncc2F)c1 [Compound R926841]
> 10 µM | COc1ccc(OCCNc2ncc(F)c(Nc3ccc4c(c3)OCCO4)n2)cc1 [Compound R950204]
> 10 µM | CCCNC(=O)c1cccc(Nc2ncc(F)c(Nc3cccc(O)c3)n2)c1 [Compound R926937]
> 10 µM | COc1cc(-c2ccccc2)c(C)cc1Nc1ncc(Br)c(Nc2cc(C)c(-c3ccccc3)cc2OC)n1 [Compound R925801]
24.1 µM | Nc1cccc(Nc2nc(Nc3cccc(O)c3)ncc2F)c1 [Compound R950163]
7.95 µM | COC(=O)c1cc(Nc2nc(Nc3cccc(O)c3)ncc2Br)cn1C [Compound R935025]

Source: patent US8158621B2, “Methods of treating or preventing autoimmune diseases with 2,4-pyrimidinediamine compounds” (Rigel Pharmaceuticals, Inc., priority 2002, dated 2012)
